From patent US6743790B2, “Factor VIIa inhibitory (thio)urea derivatives, their preparation and their use” (Aventis Pharma Deutschland GmbH, priority 2000, dated 2004)

Columns and labels:
[1] = biological target: T1, factor VIIa/tissue factor (Homo sapiens, UniProt P08709); test: Factor VIIa (FVIIa) chromogenic assay; format: biochemical; details: human factor VIIa 5 nM and TF 10 nM, substrate S-2288 500 μM, 25° C., 15 minute preincubation
T1 construct: human factor VIIa and TF (5 nM and 10 nM, respective final concentration)
Method: The ability of the compounds of the formula I to inhibit factor VIIa or other enzymes like factor Xa, thrombin, plasmin, or trypsin is assessed by determining the concentration of the compound of the formula I that inhibits enzyme activity by 50%, i.e. the IC50 value, which is related to the inhibition constant Ki. Purified enzymes are used in chromogenic assays. The concentration of inhibitor that causes a 50% decrease in the rate of substrate hydrolysis is determined by linear regression after plotting the relative rates of hydrolysis (compared to the uninhibited control) versus the log of the concentration of the compound of formula I. For calculating the inhibition constant Ki, the IC50 value is corrected for competition with substrate using the formula Ki=IC50/{1+(substrate concentration/Km)},
wherein Km is the Michaelis-Menten constant (Chen and Prusoff, Biochem. Pharmacol. 22 (1973), 3099-3108; I. H. Segal, Enzyme Kinetics, 1975, John Wiley & Sons, New York, 100-125; which are incorporated herein by reference).
The inhibitory activity (expressed as inhibition constant Ki(FVIIa)) of the compounds of formula I towards factor VIIa/tissue factor activity was determined using a chromogenic assay essentially as described previously (J. A. Ostrem et al., Biochemistry 37 (1998) 1053-1059 which is incorporated herein by reference). Kinetic assays were conducted at 25° C. in half-area microtiter plates (Costar Corp., Cambridge, Mass.) using a kinetic plate reader (Molecular Devices Spectramax 250). A typical assay consisted of 25 μl human factor VIIa and TF (5 nM and 10 nM, respective final concentration) combined with 40 μl of inhibitor dilutions in 10% DMSO/TBS-PEG buffer (50 mM Tris, 15 mM NaCl, 5 mM CaCl2, 0.05% PEG 8000, pH 8.15). Following a 15 minute preincubation period, the assay was initiated by the addition of 35 μl of the chromogenic substrate S-2288 (D-Ile-Pro-Arg-p-nitroanilide, Pharmacia Hepar Inc., 500 μM final concentration).

T1 sequence (P08709 213-466 limits assumed): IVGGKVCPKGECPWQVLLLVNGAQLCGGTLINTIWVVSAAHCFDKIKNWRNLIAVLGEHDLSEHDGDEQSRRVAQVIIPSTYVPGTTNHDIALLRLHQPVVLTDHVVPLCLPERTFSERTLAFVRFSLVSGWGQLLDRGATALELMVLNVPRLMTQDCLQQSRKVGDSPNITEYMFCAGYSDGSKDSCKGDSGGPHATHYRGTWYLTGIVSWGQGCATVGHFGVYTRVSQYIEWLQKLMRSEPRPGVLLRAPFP
T1 sequence (P08709 61-212 limits assumed): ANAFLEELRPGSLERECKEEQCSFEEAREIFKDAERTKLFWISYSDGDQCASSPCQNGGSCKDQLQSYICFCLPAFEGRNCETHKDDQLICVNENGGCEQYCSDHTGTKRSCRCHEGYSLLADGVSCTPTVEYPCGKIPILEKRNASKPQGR
T1 sequence (P13726 33-295 partner): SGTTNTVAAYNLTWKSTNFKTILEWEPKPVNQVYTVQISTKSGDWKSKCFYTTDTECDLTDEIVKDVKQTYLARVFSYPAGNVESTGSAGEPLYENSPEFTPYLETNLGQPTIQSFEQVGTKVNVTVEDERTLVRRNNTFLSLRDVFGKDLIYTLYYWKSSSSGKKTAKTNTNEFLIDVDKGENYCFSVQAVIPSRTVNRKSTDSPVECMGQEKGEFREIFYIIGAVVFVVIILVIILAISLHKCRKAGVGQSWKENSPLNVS

Structure (SMILES) | Ki [1] [nM] | melting point [°C]
CC(NC(=O)CNC(=O)Nc1ccc(C(=N)N)cc1)c1ccc(NC(=O)CCCN)cc1 (centres unmarked) [Example 54] | 47 | –
N=C(N)c1ccc(NC(=O)NCC(=O)NCc2cccc(Cl)c2)cc1 [Example 6, 2-[3-(4-carbamimidoylphenyl)ureido]-N-(3-chlorobenzyl)acetamide] | 2170 | –
COc1ccc(Oc2ccc(C(C)NC(=O)CNC(=O)Nc3ccc(C(=N)N)cc3)cc2)cc1 (centres unmarked) [Example 36] | 83 | –
COC(=O)c1cc(C(C)NC(=O)CNC(=O)Nc2ccc(C(=N)N)cc2)ccc1OCc1ccccc1 (centres unmarked) [Example 64] | 33 | –
CC(NC(=O)CNC(=O)Nc1ccc(C(=N)N)cc1)c1ccc(Oc2ccc(Cl)cc2Cl)cc1 (centres unmarked) [Example 9] | 480 | –
N=C(N)c1ccc(NC(=O)NCC(=O)N[C@H]2CCc3ccccc32)cc1 [Example 44] | 1500 | –
CC(NC(=O)CNC(=O)Nc1ccc(C(=N)N)cc1)c1ccc(C(F)(F)F)cc1C(F)(F)F (centres unmarked) [Example 60] | 27 | –
N=C(N)c1ccc(NC(=O)NCC(=O)NC(c2ccccc2)c2ccncc2)cc1 (centres unmarked) [Example 41] | 840 | –
CN(C)c1ccc(CNC(=O)C(Cc2ccccc2)NC(=O)Nc2ccc(C(=N)N)cc2)cc1 (centres unmarked) [Example 2, 2-[3-(4-Carbamimidoylphenyl)ureido]-N-(4-dimethylaminobenzyl)-3-phenylpropionamide] | 20900 | 147
Cc1ccc([C@H](C)NC(=O)CNC(=O)Nc2ccc(C(=N)N)cc2)cc1 [Example 21] | 130 | –
C[C@H](NC(=O)CNC(=O)Nc1ccc(C(=N)N)cc1)c1ccc2ccccc2c1 [Example 30] | 26 | –
N=C(N)c1ccc(NC(=O)NCC(=O)N[C@H]2CCCc3ccccc32)cc1 [Example 45] | 1410 | –
C[C@H](NC(=O)CNC(=O)Nc1ccc(C(=N)N)cc1)c1ccccc1 [Example 18] | 430 | –
C[C@H](NC(=O)Nc1ccc(C(=N)N)cc1)C(=O)NCc1ccc(C(=N)N)cc1 [Example 1, (S)-N-(4-Carbamimidoylbenzyl)-2-[3-(4-carbamimidoylphenyl)ureido]propionamide] | 14900 | –
CC(NC(=O)CNC(=O)Nc1ccc(C(=N)N)cc1)c1ccc2c(c1)NC(=O)CO2 (centres unmarked) [Example 61] | 23 | –
N=C(N)c1ccc(NC(=O)NCC(=O)NC(Cc2ccccc2)c2ccccc2)cc1 (centres unmarked) [Example 15] | 6300 | –
N#CC(NC(=O)CNC(=O)Nc1ccc(C(=N)N)cc1)c1ccc(F)cc1 (centres unmarked) [Example 43] | 8470 | –
C[C@H](NC(=O)[C@H](CCC(=O)O)NC(=O)Nc1ccc(C(=N)N)cc1)c1cccc(Br)c1 [Example 70, (S)-4-[((S)-1-(3-Bromophenyl)ethyl)carbamoyl]-4-[3-(4-carbamimidoylphenyl)ureido]-butyric Acid] | 539 | –
N=C(N)c1ccc(NC(=O)NCC(=O)NCc2ccncc2)cc1 [Example 40] | 7890 | –
CN(C)c1ccc(CNC(=O)CNC(=O)Nc2ccc(C(=N)N)cc2)cc1 [Example 4, 2-[3-(4-Carbamimidoylphenyl)ureido]-N-(4-dimethylaminobenzyl)acetamide] | 1940 | 209 to 214
CC(NC(=O)CNC(=O)Nc1ccc(C(=N)N)cc1)c1ccc(Oc2ccc([N+](=O)[O-])cc2)cc1 (centres unmarked) [Example 37] | 86 | –
N=C(N)c1ccc(NC(=O)NCC(=O)NC(c2ccccc2)c2ccccc2)cc1 [Example 5, N-Benzhydryl-2-[3-(4-carbamimidoylphenyl)ureido]acetamide] | 730 | –
CC(C)(NC(=O)CNC(=O)Nc1ccc(C(=N)N)cc1)c1ccccc1 [Example 42] | 7620 | –
C[C@@H](NC(=O)CNC(=O)Nc1ccc(C(=N)N)cc1)c1ccccc1 [Example 19] | 20200 | –
C[C@H](NC(=O)CNC(=O)Nc1ccc(C(=N)N)c(F)c1)c1cccc(Br)c1 [Example 69, N-[(S)-1-(3-Bromophenyl)ethyl]-2-[3-(4-carbamimidoyl-3-fluorophenyl)ureido]-acetamide] | 116 | –
CC(NC(=O)CNC(=O)Nc1ccc(C(=N)N)cc1)c1ccc(NC(=O)c2cccc(Oc3ccccc3)c2)cc1 (centres unmarked) [Example 52] | 12 | –
CC(NC(=O)CNC(=O)Nc1ccc(C(=N)N)cc1)c1ccc(NC(=O)C2CCNCC2)cc1 (centres unmarked) [Example 49, Piperidine-4-carboxylic acid 4-(1-{2-[3-(4-carbamimidoylphenyl)ureido]acetylamino}-ethyl)phenylamide] | 13 | –
CC(NC(=O)CNC(=O)Nc1ccc(C(=N)N)cc1)c1ccc(NC(=O)c2cccnc2)cc1 (centres unmarked) [Example 51] | 50 | –
CC(NC(=O)CNC(=O)Nc1ccc(C(=N)N)c(Cl)c1)c1ccc2c(c1)OCCO2 (centres unmarked) [Example 68, 2-[3-(4-Carbamimidoyl-3-chlorophenyl)ureido]-N-[1-(2,3-dihydrobenzo[1,4]dioxin-6-yl)ethyl]acetamide] | 3940 | –
N=C(N)c1ccc(NC(=O)NCC(=O)NCc2ccc(Cl)c(Cl)c2)cc1 [Example 3, 2-[3-(4-Carbamimidoylphenyl)ureido]-N-(3,4-dichlorobenzyl)acetamide] | 970 | –
